Test results: patent US20220218700A1, “COMBINATION OF AN ?2-ADRENOCEPTOR SUBTYPE C (ALPHA-2C) ANTAGONISTS WITH A TASK1/3 CHANNEL BLOCKER FOR THE TREATMENT OF SLEEP APNEA” (Bayer Aktiengesellschaft, priority 2019, published 2022)

Test system: upper airway collapsibility
Test: pig model of obstructive sleep apnea (OSA): collapse of the upper respiratory tract induced by negative pressure in anaesthetized, spontaneously breathing pigs
Type: in vivo, German Landrace pigs
Settings: for effect on upper airway collapsibility: all negative pressures of −50, −100 and −150 cm H2O
From the text: The therapeutic potential of the combination of an α2-Adrenoceptor subtype C (alpha-2C) antagonists with a TASK1/3 channel blocker according to the present invention in sleep apnea has been assessed preclinically in a pig model of obstructive sleep apnea (OSA).
Using negative pressure. it is possible to induce collapse and thus obstruction of the upper respiratory tract in anaesthetized, spontaneously breathing pigs (Wirth K. J. et al., Sleep 36(5) (2013) pp. 699-708).
German Landrace pigs are used for the model. The pigs are anaesthetized and tracheotomized. Two tracheal cannulas are inserted into the trachea, one into the rostral part and the other into the caudal part of the trachea. Using a connection piece. the rostral cannula is connected to a tube to the negative pressure device and to the distal tracheal cannula. The distal tracheal cannula is additionally connected to a tube with an open end to atmosphere via a connection piece that served for free tracheal breathing, circumventing the upper airway. By appropriate opening and clamping of those tubes breathing can be switched from nasal breathing to breathing through the caudal tracheal cannula, circumventing the upper airway. and the (isolated) upper airway can be connected to the negative pressure device, causing airflow in the inspiratory direction.
At certain points in time. the collapsibility of the upper respiratory tract is tested by having the pig breathe via the caudal cannula and applying negative pressures of −50, −100 and −150 cm water head (cm H2O) to the upper respiratory tract. This causes the upper respiratory tract to collapse, which manifests itself in an interruption of the airflow and a pressure drop in the tube system. This test is conducted prior to the administration of the test substance and at certain intervals after the administration of the test substance. An appropriately effective test substance can prevent this collapse of the respiratory tract in the inspiratory phase.

[1] = time 60 min after intranasal administration of 0.3 μg, TASK1/3 blocker alone
[2] = time 0 min (time point of i.v. bolus/start of infusion of alpha-2C antagonist)
[3] = time 10 min after i.v. bolus and start of i.v. infusion 0.13 μg/kg/h of alpha-2C antagonist, before nasal TASK1/3 blocker
[4] = time 30 min after i.v. bolus and start of i.v. infusion 0.13 μg/kg/h of alpha-2C antagonist, before nasal TASK1/3 blocker
[5] = time 60 min after i.v. bolus and start of i.v. infusion 0.13 μg/kg/h of alpha-2C antagonist, before nasal TASK1/3 blocker
[6] = time 90 min after i.v. bolus and start of i.v. infusion 0.13 μg/kg/h of alpha-2C antagonist, before nasal TASK1/3 blocker
[7] = time 120 min after i.v. bolus and start of i.v. infusion 0.13 μg/kg/h of alpha-2C antagonist, before nasal TASK1/3 blocker
[8] = time 150 min after i.v. bolus and start of i.v. infusion 0.13 μg/kg/h of alpha-2C antagonist, before nasal TASK1/3 blocker

In the case of `COc1cccc(C(=O)N2CCN(Cc3c(-c4ccc(Cl)cc4)nc4ccccn34)CC2)n1` [(4-{[2-(4-Chlorophenyl)imidazo[1,2-a]pyridin-3-yl]methyl}piperazin-1-yl)(6-methoxypyridin-2-yl)methanone], the “effectiveness of the dose on upper airway collapsibility” value (TASK1/TASK3 channel blocker alone, 0.3 μg) is reported as “non effective dose”, the “Percent pigs without collaps −50 cm H2O” value [1] is reported as 0% and the “Percent pigs without collaps −100 cm H2O” value [1] is reported as 0%. For the same molecule, the “Percent pigs without collaps −150 cm H2O” value [1] was 0%.

With `COCc1cccnc1N1CCN(C[C@H]2COc3ccccc3O2)CC1` [(S)-1-((2,3-dihydrobenzo[b][1,4]dioxin-2-yl)methyl)-4-(3-(methoxymethyl)pyridin-2-yl)piperazine] the “effectiveness of the dose on upper airway collapsibility” value (alpha-2C antagonist alone, i.v. bolus 0.3μg/kg + i.v. infusion 0.13 μg/kg/h) was “non effective dose”, the “effect on upper airway collapsibility” value (i.v. bolus 0.3μg/kg + i.v. infusion 0.13 μg/kg/h for five hours, only at time point 30 min after bolus and start of infusion) was “inhibited upper airway collapsibility” and the “effect on upper airway collapsibility” value (i.v. bolus 0.3μg/kg + i.v. infusion 0.13 μg/kg/h, time point 120 min after bolus and start of infusion) was “upper airway collapsibility was induced”. For the same molecule, the “Percent pigs without collaps −50 cm H2O” value [2] was 0%, the “Percent pigs without collaps −100 cm H2O” value [2] was 0% and the “Percent pigs without collaps −150 cm H2O” value [2] was 0%. For the same molecule, the “Percent pigs without collaps −50 cm H2O” value [3] was 0%, the “Percent pigs without collaps −100 cm H2O” value [3] was 0% and the “Percent pigs without collaps −150 cm H2O” value [3] was 0%. The “Percent pigs without collaps −50 cm H2O” value [4] was 100%, the “Percent pigs without collaps −100 cm H2O” value [4] was 100% and the “Percent pigs without collaps −150 cm H2O” value [4] was 100%. For the same molecule, the “Percent pigs without collaps −50 cm H2O” value [5] was 100%, the “Percent pigs without collaps −100 cm H2O” value [5] was 100% and the “Percent pigs without collaps −150 cm H2O” value [5] was 50%. For the same molecule, the “Percent pigs without collaps −50 cm H2O” value [6] was 50%, the “Percent pigs without collaps −100 cm H2O” value [6] was 0% and the “Percent pigs without collaps −150 cm H2O” value [6] was 0%. For the same molecule, the “Percent pigs without collaps −50 cm H2O” value [7] was 0%, the “Percent pigs without collaps −100 cm H2O” value [7] was 0% and the “Percent pigs without collaps −150 cm H2O” value [7] was 0%. The “Percent pigs without collaps −50 cm H2O” value [8] was 0%, the “Percent pigs without collaps −100 cm H2O” value [8] was 0% and the “Percent pigs without collaps −150 cm H2O” value [8] was 0%.
